Consider two compounds from publication PMC7870638, “Toxicity of anticancer drugs in human placental tissue explants and trophoblast cell lines” (Archives of Toxicology, 2020).

The nature of data set [1]: MTT assay in placental explants (tissue viability). The class given is cell-based, human. The note with it: female, human, term placental villous tissue explants, 72 h exposure. The method, then:
(§1) Term placentas, obtained from consenting women following uncomplicated pregnancies and delivered vaginally or by caesarean section, were used for all experiments. Approval of the Regional Committee on Research involving Human Subjects was obtained (File 2014-1397). Within 60 min after delivery, 1 cm^3 villous tissue samples were excised at random areas midway between the umbilical cord and distal edge of the placenta. To remove maternal blood, samples were carefully rinsed in sterile Dulbecco’s phosphate-buffered saline supplemented with calcium chloride and magnesium chloride (Sigma-Aldrich, St. Louis, MO, USA) which was kept at 37 °C. The villous tissue was cut into small pieces weighing approximately 5 mg, after which 4–6 pieces of tissue were cultured together in individual wells of a 6-well plate. The explants were cultured in 1.5 ml of RPMI-1640 culture medium (Gibco, USA) with 15% heat-inactivated fetal bovine serum, 1% penicillin streptomycin, 1% gentamicin, and 1% amphotericin B (Life Technologies, USA). Placental explant cultures were kept for 7 days at 37 °C in a humidified gas mixture of 5% CO2 and 95% air. The culture medium was renewed every 24 h.
(§2) Treatment with TKIs or cytostatic drugs was started at day four of culture to allow for the syncytiotrophoblasts to regenerate (Siman et al. [2001]). Explants were then incubated for 72 h with 1, 10 or 100 µM of all TKIs or cytostatic drugs mentioned above. […] Culture medium was replaced every 24 h with new medium containing the original concentration of the drug. Supernatant was collected each day and stored at − 20 °C for hormone quantification.
(§3) To evaluate tissue and cell viability, after 72 h of drug exposure, tissue explants were incubated for 4 h at 37 °C with 1 mM 3-(4,5-dimethylthiazol-2-yl)-[…] (MTT) in RPMI. After incubation, the medium was removed, the tissue in each well was weighed, and the explants were subsequently placed in 500 µL DMSO for 10 min to dissolve the formazan formed. After 10 min, the DMSO was transferred to a 96-well plate and absorbance was measured at 540 nm using a Biorad Multiwell Plate reader.
(§4) Construction of graphs and data analysis were performed using Graphpad Prism version 8.4.2. MTT conversion and progesterone and estrone release in placental explants were normalized to tissue wet weight. To compare the effects on tissue viability and cell viability, the data were normalized to control conditions and mean differences were tested using an unpaired t test, a one-way ANOVA, or a two-way repeated measures ANOVA. The change in progesterone release rate as compared to the baseline (at 0 h) was calculated for each well separately, after which data were normalized to control conditions. One-way ANOVA was used to assess effects at the 72 h time point only. The Bonferroni post hoc test was applied to compare treatment conditions with controls. Data are described as mean ± SD in Figs. 2 and 3 and as mean ± SEM in all other figures where comparisons of means between groups were made. The mean and SD or SEM were calculated from all individual results (three experiments performed in duplicate or triplicate wells, n = 6 or n = 9).
A general note: Tetrazolium assays rely on reduction of a dye to a coloured formazan, in cell work by metabolically active cells.

Data set [2] deals with progesterone and estrone release in placental explants. Briefly: Steroid (progesterone, estrone) release in placental explants, LC-MS/MS of culture medium. The class given is cell-based, human. As to conditions: placental explants, 1, 10 and 100 µM, after 24 h. The method, then:
as §1
Treatment with TKIs or cytostatic drugs was started at day four of culture to allow for the syncytiotrophoblasts to regenerate (Siman et al. [2001]). Explants were then incubated for 72 h with 1, 10 or 100 µM of all TKIs or cytostatic drugs mentioned above. […] For cisplatin and carboplatin, culture medium was used as a solvent. Culture medium was replaced every 24 h with new medium containing the original concentration of the drug. Supernatant was collected each day and stored at − 20 °C for hormone quantification.
(§5) Progesterone and estrone concentrations in culture medium were determined by LC–MS/MS analysis using an Acquity UPLC (Waters, Milford, MA, USA) equipped with a C18 UPLC column (Acquity UPLC BEH C18, 2.1 × 50 mm, Milford, MA, USA, Waters) coupled to a Xevo TQ-S (Waters) triple quadrupole mass spectrometer. Progesterone-D9 was used as internal standard and calibration curves were made in the matrix. To precipitate proteins, methanol containing the internal standard was added to culture medium samples in a ratio 3:1 (MeOH:medium). Following subsequent centrifugation (13,000g for 3 min), 1 μl of the clear supernatant was injected into the LC–MS to quantify progesterone and estrone. Solvent A consisted of 0.2 mM NH4F in water and solvent B consisted of 0.2 mM NH4F in Acetonitrile:Methanol in a ratio of 75:25%. Separation was performed at a flow rate of 350 µl/min under the following gradient conditions: 0 min 60% eluent A, 3.0 min 0% eluent A, 4 min 0% eluent A, 5 min 60% eluent A. The effluent from the UPLC was passed directly into the electrospray ion source. Positive electrospray ionization was achieved using nitrogen as a desolation gas with ionization voltage at 600 V. The source temperature was set at 500 °C and argon was used as collision gas. The following SRM transitions were used: m/z 315.10 (parent ion) to m/z 69.9 and m/z 108.9 (both product ions) for progesterone, m/z 269.0 (parent ion) to m/z 144.9 and 158.9 (product ions) for estrone, and m/z 324.2 (parent ion) to m/z 99.9 and m/z 112.9 (product ions) for the internal standard d9-progesterone. We also attempted to quantify estradiol and estriol levels in the culture medium of both explants and cells, but these were below the detection limit.
Construction of graphs and data analysis were performed using Graphpad Prism version 8.4.2. MTT conversion and progesterone and estrone release in placental explants were normalized to tissue wet weight. To compare the effects on tissue viability and cell viability, the data were normalized to control conditions and mean differences were tested using an unpaired t test, a one-way ANOVA, or a two-way repeated measures ANOVA. […]

The test system of data set [3] is JEG-3, BeWo, and syncytialised BeWo cells. Briefly: MTT assay, cell viability in all three trophoblast cell types. The class given is cell-based, human. The method, then:
(§6) Two human choriocarcinoma-derived placental cell lines were used: JEG3 and BeWo (ATCC catalog numbers HTB-36 and CCL-98, respectively). JEG3 cells were cultured in DMEM and Bewo cells in Ham’s F-12 K medium, supplemented with 10% fetal calf serum and 1% penicillin and streptomycin under a humidified 5% CO2/95% air atmosphere at 37 °C. Cells were passaged (JEG3: 1:10 twice a week; BeWo: 1:3 once a week) after trypsinization with 0.05% Trypsin–EDTA when cells reached approximately 80% confluency. For BeWo cells, the medium was renewed 3 times a week. To create syncytialised BeWo cells, regular BeWo cells were treated with 50 μM forskolin (Sigma-Aldrich, St. Louis, MO, USA) in 0.1% DMSO, to initiate syncytialisation. As forskolin increases the intracellular cAMP levels, it activates protein kinase A after which syncytialisation and fusion of trophoblasts occurs (Orendi et al. [2010]).
The cells were seeded in 96-well culture plates at a cell density of 1 × 10^4 cells/well and cultured for 24 h at 37 °C in a humidified atmosphere with 5% CO2 to allow for attachment. Subsequently, the cells were exposed to the TKIs and cytostatic drugs in concentrations ranging from 100 pM to 100 µM (triplicate). […] This is a minimum percentage DMSO, but required as cells required co-incubation with forskolin to syncytialise. Crizotinib 100 μM was used as positive control. After attachment, cells were incubated with the compounds for 48 h, after which the medium was removed and the cells were exposed to […] diluted in medium. After 3 h of incubation with MTT, the formazan crystals formed were solubilized in 50 μL DMSO. The absorbance of formazan was measured at 540 nm by a Biorad Multiwell Plate reader.

On the set-up of data set [4]: method as in Berveiller and Mir [2012]; Soininen et al. [2015]. The note with it: ref Berveiller and Mir [2012]; Soininen et al. [2015]; cited from earlier work.
Data set [5] concerns BeWo cells. Details: method as in Soininen et al. [2015]. As to conditions: after 4 h of exposure, ref Soininen et al. [2015], read-out: IC50 cell viability; cited from earlier work.
The test system of data set [6] is placental villous explants. The data set can be described thus: MTT assay in placental explants (tissue viability). It counts as cell-based, human. As to conditions: 72 h exposure, 1, 10 or 100 µM. The method, then: as §1, §2, §3, §4
The subject of data set [7] is undifferentiated BeWo cells. The data set can be described thus: MTT assay, cell viability in undifferentiated BeWo cells. The class given is cell-based. The note with it: Homo sapiens, 48 h exposure, read-out: concentration giving 50% reduction in cell viability. The method, then:
as §6
The cells were seeded in 96-well culture plates at a cell density of 1 × 10^4 cells/well and cultured for 24 h at 37 °C in a humidified atmosphere with 5% CO2 to allow for attachment. Subsequently, the cells were exposed to the TKIs and cytostatic drugs in concentrations ranging from 100 pM to 100 µM (triplicate). […] The absorbance of formazan was measured at 540 nm by a Biorad Multiwell Plate reader.

Data set [8] has as its system syncytialised BeWo cells. The class given is cell-based, human. As to conditions: 48 h exposure.
Experimental: The cells were seeded in 96-well culture plates at a cell density of 1 × 10^4 cells/well and cultured for 24 h at 37 °C in a humidified atmosphere with 5% CO2 to allow for attachment. Subsequently, the cells were exposed to the TKIs and cytostatic drugs in concentrations ranging from 100 pM to 100 µM (triplicate). […] This is a minimum percentage DMSO, but required as cells required co-incubation with forskolin to syncytialise. Crizotinib 100 μM was used as positive control. […] The absorbance of formazan was measured at 540 nm by a Biorad Multiwell Plate reader.
The test system of data set [9] is progesterone release in syncytialised BeWo cells. Briefly: Steroidogenesis (progesterone release) in syncytialised BeWo cells. The class given is cell-based, human. The note with it: 48 h, crizotinib 1 μM, paclitaxel 3 nM, cisplatin 100 μM, carboplatin 100 μM, not statistically significant. The method, then: as §6
For doxorubicin, only two concentrations were tested. Conditioned medium, containing the secreted hormones, was collected after 48 h exposure to the TKIs and cytostatic drugs and stored at − 80 °C until analysis. To eliminate the influence of the varying cell densities between the wells, total protein content in each well was measured. Cells were washed twice with Hank’s buffered Salt Solution (HBSS) and lysed with 50 μL 1 M sodium hydroxide (NaOH). Subsequently, 10 μL of the lysate was mixed with 190 μL of 5 times diluted dye reagent (Biorad protein assay). The absorbance was measured at 595 nm using a Biorad Multiwell Plate reader. The quantities of protein in the samples were determined via a calibration curve of bovine serum albumin.
as §5

On the set-up of data set [10]: method as in Berveiller et al. [2018]. The note with it: in vivo; ref Berveiller et al. [2018]; cited from earlier work.
Data set [11] relates to isolated third trimester primary trophoblasts. The arrangement: method as in Berveiller et al. [2018]. As to conditions: ref Berveiller et al. [2018], read-out: concentration giving 50% reduction in cell viability; cited from earlier work.

Take `COc1cccc2c1C(=O)c1c(O)c3c(c(O)c1C2=O)C[C@@](O)(C(=O)CO)C[C@@H]3O[C@H]1C[C@H](N)[C@H](O)[C@H](C)O1` [doxorubicin]: the viability at 72 h, 1 µM in [1] (1 µM, read-out: viability in explants, % of control values) turned out to be 83 ± 7%. For the same compound, in data set [1] (100 µM, mean ± SEM, read-out: tissue viability, % of control), the viability at 72 h, 100 µM is 14 ± 2%. Moreover, the “progesterone production (in words)” value in data set [2] is on record as “induced progesterone production”. Also, in [3] (all cell types (48 h) versus placental explants (72 h)), the “potency on viability in cells relative to explants (times more potent)” value was “approximately 10 times”. Moreover, in data set [3] (all cell types, 1 µM, 48 h exposure), the “effect on viability (in words)” value was “fully inhibited viability in all cell types”. In [4], the “uptake in ex vivo perfused placental tissue, % of initial maternal concentrations” value is 38–70%. The IC50 in data set [5] was 600 nM.

Turning to `CC(=O)O[C@H]1C(=O)[C@@]2(C)[C@H]([C@H](OC(=O)c3ccccc3)[C@]3(O)C[C@H](OC(=O)[C@H](O)[C@@H](NC(=O)c4ccccc4)c4ccccc4)C(C)=C1C3(C)C)[C@]1(OC(C)=O)CO[C@@H]1C[C@@H]2O` [paclitaxel], the “effect on tissue viability (in words)” value in data set [6] is on record as “moderately affected tissue viability, but this was not statistically significant”. Also, the IC50 in data set [3] (Homo sapiens, all cell types (JEG-3, BeWo, syncytialised BeWo), 48 h exposure, read-out: concentration at which cell viability was reduced to 50% or less) was 3 to 10 nM; in data set [7], 1 to 3 nM; in [11] it was 18 to 180 nM. Besides, the “cytotoxicity in syncytialised BeWo cells compared to undifferentiated BeWo and JEG3 cells (in words)” value in data set [8] is on record as “consistently less cytotoxic in syncytialised BeWo cells”. For the same compound, the “progesterone release (in words)” value in [9] is recorded as “slight induction of progesterone release”. Further, in data set [10], the “concentration in placental tissue compared to maternal levels at delivery” value is given as “ten-fold higher”.

The viability is the share of living cells, or the viability signal relative to a control.
